From PMC2556205 (Journal of medicinal chemistry, 2008)

How the values were obtained:
[1] = biological target: T1, purified recombinant rat FAAH (Rattus norvegicus, UniProt P97612); experiment: FAAH inhibition assay, 14C-oleamide hydrolysis, Dixon plot; assay type: biochemical; details: for FAAH inhibition (in words): pH 9 assay conditions
T1 sequence (P97612 30-579 limits assumed): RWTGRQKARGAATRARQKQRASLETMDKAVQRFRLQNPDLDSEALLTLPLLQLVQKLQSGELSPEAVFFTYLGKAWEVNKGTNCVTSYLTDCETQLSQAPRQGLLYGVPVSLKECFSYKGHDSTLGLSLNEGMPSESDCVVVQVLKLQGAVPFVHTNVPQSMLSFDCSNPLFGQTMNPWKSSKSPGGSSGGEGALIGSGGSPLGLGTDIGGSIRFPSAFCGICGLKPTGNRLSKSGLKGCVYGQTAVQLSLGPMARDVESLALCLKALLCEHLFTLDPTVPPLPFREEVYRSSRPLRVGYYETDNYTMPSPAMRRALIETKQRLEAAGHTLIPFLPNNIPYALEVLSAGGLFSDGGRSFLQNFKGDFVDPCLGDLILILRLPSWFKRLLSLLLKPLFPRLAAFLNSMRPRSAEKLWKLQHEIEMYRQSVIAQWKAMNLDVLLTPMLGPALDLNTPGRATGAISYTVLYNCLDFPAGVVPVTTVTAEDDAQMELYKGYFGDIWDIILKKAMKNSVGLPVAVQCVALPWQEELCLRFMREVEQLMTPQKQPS

[2] = tested on: cannabinoid (CB2) receptor; details: cited from earlier work
[3] = biological target: T1, purified recombinant rat FAAH; details: cited from earlier work
[4] = tested on: formalin test of noxious chemical pain; details: 1st and 2nd phase; 10–20 mg/kg, i.p.; cited from earlier work
[5] = tested on: spinal nerve ligation (SNL) model of neuropathic pain; details: 10–20 mg/kg, i.p.; cited from earlier work
[6] = tested on: vanilloid (TRP) receptors; details: cited from earlier work
[7] = tested on: P450 3A4; details: cited from earlier work
[8] = tested on: P450 2C9; details: cited from earlier work
[9] = tested on: P450 2D6; details: cited from earlier work
[10] = tested on: human ether-a-go-go related gene (hERG); details: cited from earlier work
[11] = tested on: FAAH knockout mice; details: cited from earlier work
[12] = tested on: cannabinoid (CB1) receptor; details: cited from earlier work
[13] = tested on: mild thermal injury (MTI) model of peripheral pain; details: 10–20 mg/kg, i.p.; cited from earlier work
[14] = tested on: hot plate assay; details: 10–20 mg/kg, i.p.; cited from earlier work
[15] = tested on: tail flick assay; details: 10–20 mg/kg, i.p.; cited from earlier work
[16] = tested on: endogenous anandamide levels; details: cited from earlier work
[17] = Cerep assay profiling; cited from earlier work

In the case of `Cn1nnnc1C(=O)CCCCCCc1ccccc1` [19b], the “FAAH inhibition (in words)” value [1] is reported as “displayed FAAH inhibition at levels consistent with this series”.

In the case of `O=C(CCCCCCc1ccccc1)c1ncc(-c2ccccn2)o1` [compound 2], the CB2 receptor binding [2] is listed as “does not bind”, the “mode of inhibition (Lineweaver–Burk analysis)” value [3] is listed as “reversible, competitive inhibition” and the “analgesic activity, formalin test” value [4] is listed as “analgesic activity”. For the same compound, the “analgesic activity, SNL model” value [5] was “analgesic activity”, the “vanilloid (TRP) receptor binding” value [6] was “does not bind” and the “inhibition of P450 3A4” value [7] was “does not significantly inhibit”. For the same compound, the “inhibition of P450 2C9” value [8] was “does not significantly inhibit”, the “inhibition of P450 2D6” value [9] was “does not significantly inhibit” and the “inhibition of hERG” value [10] was “does not significantly inhibit”. The “analgesia in FAAH knockout mice” value [11] was “ineffective at promoting analgesia”, the CB1 receptor binding [12] was “does not bind” and the “analgesic activity, MTI model” value [13] was “analgesic activity”. The “analgesic activity, hot plate assay” value [14] was “analgesic activity”, the “analgesic activity, tail flick assay” value [15] was “analgesic activity” and the endogenous anandamide levels [16] was “increases endogenous anandamide levels”. For the same compound, the offsite target activity [17] was “lack significant offsite target activity”.

In the case of `Cn1nnc(C(=O)CCCCCCc2ccccc2)n1` [19a], the “FAAH inhibition (in words)” value [1] is reported as “displayed FAAH inhibition at levels consistent with this series”.

With `O=C(CCCCCCc1ccccc1)c1cnc(-c2ccccn2)o1` [compound 6] the “loss of FAAH inhibition” value ([1]; oxazole isomer, location of the oxazole nitrogen atom switched, compared with 2) was greater than 4000 fold.
